# Experiment: Human HepG2 cell viability assay in 384 well format
# Assay type: toxicity, cell-based
# Parameters: dose 125 nL, time 70.5 hour; concentration not given beside the values
# Settings: HepG2 cells, read-out: Inhibition
row,SMILES,cytotoxicity at 70.5 h
1,Cc1ccccc1-n1cnnc1SCC1CCCCO1 (configuration not stated),-9.11%
2,c1cnc(N2C[C@H]3CCN(c4cccnc4)C[C@H]3C2)nc1,-6.6%
3,CCC[C@H]1CN(c2nccc(NCC)n2)C[C@@H]1NS(=O)(=O)N(C)C,-7.09%
4,O=C(NCCN1CCOCC1)NCC(O)c1cccc(F)c1 (configuration not stated),-3.47%
5,Cc1nc(CN(C)Cc2nc(-c3ccccc3)no2)co1,-1.63%
6,Cc1ccc(CN2CC[C@H]3C[C@H](c4nc(C5CC5)cs4)O[C@@H]3C2)o1,-6.11%
7,CC(C)(C)c1cc(=O)[nH]c(-c2ccccc2CN2CCC[C@@H](O)C2)n1,-2.12%
8,CC(C)CN1CCN(S(=O)(=O)c2cn(C)cn2)[C@H]2CS(=O)(=O)C[C@H]21,-9.12%
9,O=C([C@@H]1COC[C@H]2CN(C3CCCCC3)C[C@H]21)N1CCOCC1,-9.47%
10,COc1ccc(-c2noc(CN3CCc4cncnc4C3)n2)cc1,-8.79%
11,Cc1cc(C)nc(N2CCC(C(=O)O)(n3ccc(C(C)(C)C)n3)CC2)n1,-10.1%
12,Cc1nc(CNC2CCN(Cc3ccccc3)C2)sc1C (configuration not stated),-4.16%
13,Cc1cnn(C2CN(CC(O)COCc3ccc4c(c3)OCO4)C2)c1 (configuration not stated),-0.637%
14,COC(=O)CC(NC(=O)c1cc(OC)c2c(c1)OCCO2)c1cccs1 (configuration not stated),-9.89%
15,Cc1csc2c(C3CCCN(C(=O)Cn4cncn4)C3)nc(C)n12 (configuration not stated),-1.76%
16,Cc1cc(NCCCc2c(C)noc2C)nc(N)n1,-10.4%
17,Cn1ccnc1-c1ccc(NCCC2COc3ccccc3O2)nn1 (configuration not stated),-4.08%
18,COc1ccc(-n2ncc(C(C)NC3Cc4ccccc4C3)c2C)cc1 (configuration not stated),5.61%
19,CCOC(=O)c1sc(NC(=O)c2cc(=O)c(OC)c[nH]2)nc1C,-8.8%
20,CCn1ncnc1C1CC(=O)NCc2nc(N)sc21 (configuration not stated),27.6%
21,Cc1nccn1-c1ccc(NC(=O)C2CCCN2Cc2c[nH]cn2)cc1 (configuration not stated),14.9%
22,O=C1CC(C(=O)NCCN2CCOC2=O)c2cc(F)ccc2N1 (configuration not stated),2.37%
23,CCc1ccc(CN(C)C(=O)C2CC(=O)N(c3cccc(O)c3)C2)nc1 (configuration not stated),-0.196%

row,SMILES,cytotoxicity at 70.5 h
1,CCOc1cccc(CNC(=O)NCC(O)c2cccc(F)c2)c1 (configuration not stated),10.6%
2,Cc1nc(COC[C@H]2CC[C@H]3[C@H](CCN3c3ncccn3)O2)cs1,-6.71%
3,COc1ccc(C)cc1-n1cnnc1C1CCOCC1,-2.32%
4,CCCN1Cc2cc(Br)ccc2OCC1=O,28.2%
5,COc1nccnc1N1C[C@@H]2CC[C@H](C1)N(CC=C(C)C)C2=O,-20.8%
6,Nc1nccnc1C1CN(C(=O)c2cnc(C3CC3)nc2)CCO1 (configuration not stated),-4.03%
7,Cc1ccccc1-c1cncc(C2CCN(CC(=O)N(C)C)CC2)n1,-3.4%
8,CC(C)c1noc(-c2ccc(NC(=O)NCC(O)C(C)C)cc2)n1 (configuration not stated),-7.09%
9,CN1CCC(C(=O)N2CCC(=Cc3cccc(F)c3)CC2)CC1=O (configuration not stated),16.2%
10,CCc1cc(N2CCC(NCCSc3nnnn3C)CC2)nc(C)n1,-0.17%
11,COc1ccc2c(c1)C(C(=O)NCCCN1CCN(C)CC1)CC(=O)N2 (configuration not stated),-25%
12,CN(CCO)Cc1nnc(C2CCN(C(=O)c3ccccn3)CC2)n1C,1.55%
13,OCc1n[nH]c(-c2ccc(F)cc2)n1,-13.2%
14,CC(O)CN1CCN(C(=O)c2ccc3c(c2)COC3)CC1 (configuration not stated),22.6%
15,c1cnn(C2CN(Cc3noc(C4CC4)n3)C2)c1,-7.11%
16,CSCCC(=O)N1CCC(CCC(=O)NCC2CCCO2)CC1 (configuration not stated),-13.2%
17,Cc1cc(SC(C)(C)C)ccc1NC(=O)CNC(N)=O,-9.26%
18,Cn1cnc(S(=O)(=O)N2C[C@H]3CN(Cc4ccccn4)C[C@H]3C2)c1,-1.38%
19,Cn1nnc2c(sc3nc(N4CCOCC4)c4c(c32)CCC4)c1=O,-16%
20,CCCn1cnc2c(cnn2-c2cccc(C)c2C)c1=O,37.7%
21,O=C(c1ccnnc1)N1C[C@@H](OCC2CCOCC2)[C@H]2OCCC[C@H]21,-12.9%
22,c1cc(CCNc2ncc(-c3cnccn3)c(C3CC3)n2)ccn1,-5.03%
23,COC(=O)c1ccc(N(C(=O)c2cscn2)C(C)C)c(C)c1,-4.28%

row,SMILES,cytotoxicity at 70.5 h
1,Cc1cccc(CN2CCC3(CCC(CC(=O)N(C)C)CC3)CC2)n1,-8.22%
2,CCN(CC)C(C(=O)NCc1ccc(N2CCCC2)nc1)C(C)C (configuration not stated),2.85%
3,CN(C)c1cc(C(=O)NCC2(c3cccc(F)c3)CCOCC2)ccn1,-4.88%
4,COc1cccc(OC)c1OCCn1c(C)c(C)oc1=O,0.271%
5,Cc1cccc(CN2CCc3c(nc(N4CCC(C)CC4)[nH]c3=O)C2)n1,-9.37%
6,CC(C)CN1CCC2(CC1)C(=O)Nc1ccc(C(=O)N(C)C)cc12,-10.1%
7,COCCN1CC[C@]2(CN(C(=O)c3cccs3)C[C@H]2C)C1=O,-10.6%
8,Cc1cnn(CC2CCCCN2C(=O)c2ccc3nnc(C)n3c2)c1 (configuration not stated),-10.9%
9,Cc1cc(C)n(C2CN(CC(=O)NC3CCOCC3)C2)n1,-0.827%
10,NCCc1n[nH]c(=O)n1-c1cccc2ccccc12,-4.93%
11,Cn1[nH]c(C2CC2)c(-c2ccc3c(c2)OCO3)c1=N,8.3%
12,Cc1cnn(CC2CCCN2C(=O)Cc2n[nH]c3ccccc23)c1 (configuration not stated),-14.5%
13,O=C(Nc1ccccc1-c1cccs1)N1CCOCC1,-13.2%
14,Cc1cc(C2CCNCC2)nc(-c2ccsc2)n1,-8.24%
15,CC(Cn1cccn1)C(=O)N1CCCN(Cc2cscn2)CC1 (configuration not stated),-0.68%
16,O=C(CC1CC1)N1CCC2(COCc3cnc(N4CCOCC4)nc32)C1 (configuration not stated),-6.88%
17,COc1ccc(C)cc1NC(=O)Nc1cnc(N2CCN(C)CC2)nc1,16.2%
18,NC(=O)c1cccc(-c2cnc(C3CCCNC3)cn2)c1 (configuration not stated),-7.33%
19,CCCc1nc(N(C)CCc2noc(C(C)C)n2)c2cnn(C)c2n1,5.48%
20,Cc1noc(C)c1NC(=O)CCn1cc(Br)ccc1=O,-8.23%
21,CN1CCN(c2ncnc3c2c(C(=O)NC2CC2)c2ccccn23)CC1,5.64%
22,Cc1cc(C)n(CC(C)CNC(=O)NCc2c(C)cc(C)[nH]c2=O)n1 (configuration not stated),-10.1%
23,CCCNC(=O)C(C)N1CCC(C(=O)Nc2cnn(CC)c2)CC1 (configuration not stated),-4.58%

row,SMILES,cytotoxicity at 70.5 h
1,CCn1cc(CN2CCC(c3ccncc3)CC2)cc1C#N,-5.65%
2,CS(=O)(=O)c1ccc(CNC(=O)N2CCC(c3ccccc3)CC2)cc1,-2.27%
3,CC(C)Cc1nc(-c2ccnc(N3CCNCC3)n2)no1,-7.21%
4,Cc1nc(N2CCN(C(=O)c3ccccc3)CC2)cc(-n2ccnc2)n1,10.7%
5,N#Cc1cccc(Oc2ccc(CN3CCCC3)cc2Cl)n1,18.1%
6,O[C@@H]1C[C@@H](c2nc(-c3ccccc3)no2)N(Cc2cccnc2)C1,-2.41%
7,CNC(=O)c1c(C)cccc1NCc1noc(C2CC2)n1,-2.54%
8,N#Cc1c(F)cccc1NCCCOCC1CCOC1 (configuration not stated),-0.771%
9,Cc1nc(C(=O)N2CCCC2c2noc(C)n2)c[nH]1 (configuration not stated),-4.04%
10,Cc1cc(C)n2nc(C(=O)N3CCCC4(CCOC4)C3)cc2n1 (configuration not stated),-10.3%
11,Cc1cccc(N2CC[C@@H]3CN(C(=O)c4ccco4)CCO[C@@H]3C2)n1,-13.8%
12,c1ccc(CN2CCC(Nc3ncnc4c3CCNCC4)C2)cc1 (configuration not stated),-4.37%
13,COCc1nnc(-c2cccc(C(=O)N(C(C)C)C3CCC3)c2)o1,-12.7%
14,COc1cc(N2CCC(c3nccn3Cc3ccccn3)CC2)ncn1,-4.99%
15,COc1ccc(CCC(=O)NCCN2CCC(c3cccs3)CC2)cc1,-1.5%
16,NCc1cn(CC2CCCN(C(=O)NCc3ccc(Cl)cc3)C2)nn1 (configuration not stated),2.71%
17,CNC(=O)CNC(=O)NCc1cc2c(s1)CCC(C)(C)C2,2.16%
18,CCc1csc(C2CCCN(C(=O)c3ccc(=O)n(CC)n3)C2)n1 (configuration not stated),-5.74%
19,CN1C(=O)CC(c2cnn(C)c2)C12CCN(C(=O)C1CC=CC1)CC2 (configuration not stated),-6.39%
20,O=C(CCn1ncc2c(Cl)cccc21)NCCCO,-5.48%
21,Cc1ccc(N2CCCN(C(=O)C3CCCO3)CC2)nn1 (configuration not stated),4.49%
22,CC(C1CCN(Cc2ccc(N(C)C)nc2)CC1)N(C)C (configuration not stated),-2.39%
23,CCn1c(C)cc(C(=O)NCc2cccc(S(=O)(=O)NC)c2)c1C,-4.15%

row,SMILES,cytotoxicity at 70.5 h
1,COC(=O)C1(NCC(=O)Nc2cc(C)ccc2OC)CCCCC1,2.15%
2,Cn1c(CN2CCC(O)CC2)nnc1C1CCCN(c2ccncc2)C1 (configuration not stated),-9.58%
3,Cc1cnn(CCNCc2nc(COc3ccc(F)cc3)no2)c1,6.22%
4,O=C(NCc1nnc2n1CCC2)c1ccc(Br)s1,-5.66%
5,Cc1ccc(C(=O)O)cc1S(=O)(=O)N(CC(C)O)c1ccccc1 (configuration not stated),-16.2%
6,COc1cc(C(=O)N2CC(Oc3ccccc3Cl)C2)ccn1,-3.47%
7,CSc1ncc(C(=O)NCc2cc3n(n2)CCCN(CC(C)C)C3)cn1,5.43%
8,Cc1cnc(NC2CCc3c(ccc(=O)n3C)C2)nc1 (configuration not stated),-4.77%
9,CC1(CCNC(=O)NCc2ccsc2)OCCO1,-6.29%
10,O=C(CCc1cn[nH]c1)N1C[C@H](CO)C[C@H](CN2CCOCC2)C1,-8.81%
11,CCC(C)(NCc1ncc(C(C)C)o1)c1nccs1 (configuration not stated),1.37%
12,Cc1c(Cl)cc(C(=O)NCCc2ncnn2C)cc1Cl,-9.97%
13,c1c[nH]c2nc(C3CCNC3)nc-2c1 (configuration not stated),-17.5%
14,O=C(c1cncs1)N1CCC(Cc2cnc3[nH]ccc3c2)CC1,15.3%
15,CCOCc1ccccc1NC(=O)NC1CCN(c2ncccn2)CC1,-6.67%
16,Cc1[nH]/c(=N/C(=O)Cn2nc(N3CCOCC3)ccc2=O)sc1C,-6.43%
17,CN1CC(=O)N(c2cccc(F)c2)CC12CCN(Cc1ccccn1)C2 (configuration not stated),-1.03%
18,CNc1cc(C2CCN2c2ncccn2)nc(C)n1 (configuration not stated),-6.05%
19,Cc1ccnc(OC[C@]23COC[C@H]2CN(C(=O)C2=CCCCC2)C3)n1,-11.5%
20,Cc1ccc2nc(CN3CCN(C4CCCCC4)C(=O)C3)cc(O)c2c1,-0.969%

# From ChEMBL document CHEMBL3507680, “University of Dundee, Gates Library screen for HepG2 cell viability”
